Strand notation (5' to 3'): a small letter for the sugar, then the base; units joined by * are phosphorothioate-linked, units joined directly phosphodiester-linked; [ ] holds rarer units or linkages, { } end groups; capitals alone tell only the bases. d = 2'-deoxy (DNA)

This is an account of results in patent publication US20040009599A1, “Antisense modulation of cellular inhibitor of apoptosis-1 expression” (priority 1998, published 2004).

For the data set, the system named is human Cellular Inhibitor of Apoptosis-1 RNA. Put plainly: Inhibition of Cellular Inhibitor of Apoptosis-1 mRNA levels by quantitative real-time PCR after oligonucleotide treatment of cells. The format is cell-based. The conditions noted are these: for % Inhibition of Cellular Inhibitor of Apoptosis-1 mRNA levels: phosphorothioate oligodeoxynucleotides, oligonucleotide at final concentration of 150 nM with LIPOFECTIN, real-time PCR, averages from three experiments; for inhibition of Cellular Inhibitor of Apoptosis-1 expression: summary of Table 1, real-time PCR of mRNA levels. As for the experimental part: Cells were harvested 16 hours after oligonucleotide treatment.
Poly(A)+ mRNA was isolated according to Miura et al., Clin. Chem., 1996, 42, 1758-1764. Other methods for poly(A)+ mRNA isolation are taught in, for example, Ausubel, F. M. et al., Current Protocols in Molecular Biology, Volume 1, pp. 4.5.1-4.5.3, John Wiley & Sons, Inc., 1993. […] 60 μL lysis buffer (10 mM Tris-HCl, pH 7.6, 1 mM EDTA, 0.5 M NaCl, 0.5% NP-40, 20 mM vanadyl-ribonucleoside complex) was added to each well, the plate was gently agitated and then incubated at room temperature for five minutes. 55 μL of lysate was transferred to Oligo d(T) coated 96-well plates (AGCT Inc., Irvine Calif.). Plates were incubated for 60 minutes at room temperature, washed 3 times with 200 μL of wash buffer (10 mM Tris-HCl pH 7.6, 1 mM EDTA, 0.3 M NaCl). After the final wash, the plate was blotted on paper towels to remove excess wash buffer and then air-dried for 5 minutes. 60 μL of elution buffer (5 mM Tris-HCl pH 7.6), preheated to 70° C. was added to each well, the plate was incubated on a 90° C. hot plate for 5 minutes, and the eluate was then transferred to a fresh 96-well plate.
Cellular Inhibitor of Apoptosis-1 probes and primers were designed to hybridize to the human Cellular Inhibitor of Apoptosis-1 sequence, using published sequence information (GenBank accession number U37547, incorporated herein as SEQ ID NO:1).
For Cellular Inhibitor of Apoptosis-1 the PCR primers were: […]
Target sites are indicated by nucleotide numbers, as given in the sequence source reference (Genbank accession no. U37547), to which the oligonucleotide binds. All compounds in Table 1 are oligodeoxynucleotides with phosphorothioate backbones (internucleoside linkages) throughout. […] Data are averages from three experiments. If present, “N.D.” indicates “no data”.
Background: Quantitative PCR measures a nucleic acid by following its amplification.

“ISIS 23360: phosphorothioate oligodeoxynucleotide ttcccaacacctcaagcc, Coding target site 2093 (antisense dT*dT*dC*dC*dC*dA*dA*dC*dA*dC*dC*dT*dC*dA*dA*dG*dC*dC)”: the “% Inhibition of Cellular Inhibitor of Apoptosis-1 mRNA levels” value (from here on “% Inhibition”) came to 55% and the “inhibition of Cellular Inhibitor of Apoptosis-1 expression” value is “at least 20%”.

As for “ISIS 23361: phosphorothioate oligodeoxynucleotide taccttgaatctcatcaa, Coding target site 2193 (antisense dT*dA*dC*dC*dT*dT*dG*dA*dA*dT*dC*dT*dC*dA*dT*dC*dA*dA)”, the “% Inhibition” value came out at 0%.

On to “ISIS 23362: phosphorothioate oligodeoxynucleotide ataattggtgggtcagca, Coding target site 2269 (antisense dA*dT*dA*dA*dT*dT*dG*dG*dT*dG*dG*dG*dT*dC*dA*dG*dC*dA)”, for which the “% Inhibition” value came out at 0%.

As to “ISIS 23363: phosphorothioate oligodeoxynucleotide ttttactttgaactgttt, Coding target site 2391 (antisense dT*dT*dT*dT*dA*dC*dT*dT*dT*dG*dA*dA*dC*dT*dG*dT*dT*dT)”, the “% Inhibition” value stood at 0%.

Regarding “ISIS 23364: phosphorothioate oligodeoxynucleotide catttcttcagcttgttt, Coding target site 2501 (antisense dC*dA*dT*dT*dT*dC*dT*dT*dC*dA*dG*dC*dT*dT*dG*dT*dT*dT)”, the “% Inhibition” value came to 0%.

In the case of “ISIS 23365: phosphorothioate oligodeoxynucleotide tcgcttgtaaaggtatct, Coding target site 2661 (antisense dT*dC*dG*dC*dT*dT*dG*dT*dA*dA*dA*dG*dG*dT*dA*dT*dC*dT)”, the “% Inhibition” value came out at 0%.

With “ISIS 23366: phosphorothioate oligodeoxynucleotide attcttatccacaaataa, Coding target site 2774 (antisense dA*dT*dT*dC*dT*dT*dA*dT*dC*dC*dA*dC*dA*dA*dA*dT*dA*dA)”, the “% Inhibition” value is 0%.

Regarding “ISIS 23367: phosphorothioate oligodeoxynucleotide gaccacaaggaataaata, Coding target site 2904 (antisense dG*dA*dC*dC*dA*dC*dA*dA*dG*dG*dA*dA*dT*dA*dA*dA*dT*dA)”, the “% Inhibition” value stood at 0%.

On to “ISIS 23368: phosphorothioate oligodeoxynucleotide ttagatggcttcaagtgt, 3′ UTR target site 3071 (antisense dT*dT*dA*dG*dA*dT*dG*dG*dC*dT*dT*dC*dA*dA*dG*dT*dG*dT)”, for which the “% Inhibition” value is reported as 10%.

For “ISIS 23369: phosphorothioate oligodeoxynucleotide atatagttcaccaaacat, 3′ UTR target site 3222 (antisense dA*dT*dA*dT*dA*dG*dT*dT*dC*dA*dC*dC*dA*dA*dA*dC*dA*dT)”, the “% Inhibition” value came out at 0%.

On to “ISIS 23370: phosphorothioate oligodeoxynucleotide ttcctggtttccagttct, 3′ UTR target site 3355 (antisense dT*dT*dC*dC*dT*dG*dG*dT*dT*dT*dC*dC*dA*dG*dT*dT*dC*dT)”, for which the “% Inhibition” value came to 46% and the “inhibition of Cellular Inhibitor of Apoptosis-1 expression” value is recorded as “at least 20%”.

Regarding “ISIS 23371: phosphorothioate oligodeoxynucleotide agtgaaaagcaccaaaga, 3′ UTR target site 3407 (antisense dA*dG*dT*dG*dA*dA*dA*dA*dG*dC*dA*dC*dC*dA*dA*dA*dG*dA)”, the “% Inhibition” value is on record as 0%.
